The subject of one series is NCI-H1299. Put plainly: MTS assay, NCI-H1299 cells. In kind it is cell-based. The conditions noted are these: Homo sapiens, 72 hours, read-out: NCI-H1299, MTS cell kill % inhibition. The method, boiled down: (§1)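 First, seed 3000 cells per well in low-serum (1% FBS) DMEM and culture 18 h. Next, add compounds prepared at 300× in DMSO and diluted 1:40 in DMEM; incubate 72 h. Finally, add MTS/PMS for 4 h and measure absorbance at 492 nm.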
Background: Tetrazolium dyes change colour on reduction, which living cells bring about.

In another series the target is IGF-1R (Homo sapiens, UniProt P08069). Put plainly: IGFR1 activity assay (ELISA). In kind it is biochemical. The conditions noted are these: read-out: IGF-1R, PCT INH (30 μM), ELISA. The method, boiled down:
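IGF1R (0.33 ng/μL final) phosphorylating Pyk-2 (0.05 ng/μL final) in buffer with 12.5 μM ATP, 10 mM MgCl2, 1 h room temperature. Product captured on streptavidin plates, detected with anti-phosphotyrosine and alkaline phosphatase secondary antibody, Attophos fluorescent readout.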

The test system of another series is KATO III. Put plainly: MTS assay, KATO III cells. The conditions noted are these: Homo sapiens, 72 hours, read-out: KATO III, MTS cell kill % inhibition. It counts as cell-based. The method, boiled down: as §1
Another series has as its system DLD-1. As to the kind of experiment: MTS assay, DLD-1 cells. The settings on record: Homo sapiens, 72 hours, read-out: DLD-1, MTS cell kill % inhibition. It counts as cell-based. A digest of the protocol: as §1
The next series concerns MDA-MB-231. Put plainly: MTS assay, MDA-MB-231 cells. In kind it is cell-based. The conditions noted are these: Homo sapiens, 72 hours, read-out: MDA-MB-231, MTS cell kill % inhibition. The method, boiled down:
as §1

This passage reports melting point and inhibition results from patent publication US8410144B2, “Substituted indolo-pyridinone compounds” (ArQule, Inc., priority 2009, dated 2013).

Each structure is given as a SMILES string.

Sequence of IGF-1R (P08069 31-1367): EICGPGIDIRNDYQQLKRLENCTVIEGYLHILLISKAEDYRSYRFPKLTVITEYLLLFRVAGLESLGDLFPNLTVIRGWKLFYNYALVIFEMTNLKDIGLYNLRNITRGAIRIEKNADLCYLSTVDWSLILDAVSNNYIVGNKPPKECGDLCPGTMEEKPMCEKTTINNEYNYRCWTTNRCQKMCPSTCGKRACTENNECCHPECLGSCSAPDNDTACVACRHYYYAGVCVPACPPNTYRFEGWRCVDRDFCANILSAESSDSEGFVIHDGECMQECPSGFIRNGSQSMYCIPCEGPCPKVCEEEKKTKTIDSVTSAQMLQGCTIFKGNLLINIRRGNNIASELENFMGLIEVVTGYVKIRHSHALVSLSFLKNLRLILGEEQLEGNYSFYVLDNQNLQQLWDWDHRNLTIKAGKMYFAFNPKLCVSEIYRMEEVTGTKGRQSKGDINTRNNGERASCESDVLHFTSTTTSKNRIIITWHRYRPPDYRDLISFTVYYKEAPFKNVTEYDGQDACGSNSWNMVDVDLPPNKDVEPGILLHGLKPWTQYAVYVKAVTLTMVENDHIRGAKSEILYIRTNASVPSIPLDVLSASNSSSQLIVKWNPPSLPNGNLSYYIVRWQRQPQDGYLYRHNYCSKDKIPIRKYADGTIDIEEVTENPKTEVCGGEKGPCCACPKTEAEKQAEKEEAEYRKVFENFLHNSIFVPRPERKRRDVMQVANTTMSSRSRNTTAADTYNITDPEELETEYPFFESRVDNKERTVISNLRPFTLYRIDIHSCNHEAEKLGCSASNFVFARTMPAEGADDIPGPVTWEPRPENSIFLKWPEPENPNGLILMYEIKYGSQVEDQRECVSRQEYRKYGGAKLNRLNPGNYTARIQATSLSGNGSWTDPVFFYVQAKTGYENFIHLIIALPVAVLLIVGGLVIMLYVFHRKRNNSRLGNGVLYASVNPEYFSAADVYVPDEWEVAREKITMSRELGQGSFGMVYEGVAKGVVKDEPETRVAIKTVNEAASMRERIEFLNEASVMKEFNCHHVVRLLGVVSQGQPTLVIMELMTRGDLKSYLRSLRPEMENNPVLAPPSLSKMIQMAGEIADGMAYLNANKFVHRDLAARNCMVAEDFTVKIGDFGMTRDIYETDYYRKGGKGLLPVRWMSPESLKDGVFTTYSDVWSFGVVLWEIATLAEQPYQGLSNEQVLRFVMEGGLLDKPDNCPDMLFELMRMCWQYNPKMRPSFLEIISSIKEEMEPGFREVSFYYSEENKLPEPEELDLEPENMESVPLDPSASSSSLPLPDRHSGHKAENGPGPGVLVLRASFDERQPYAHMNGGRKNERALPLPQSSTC

Regarding `O=C(NCCCN1CCOCC1)c1ccc2[nH]c(-c3ccc[nH]c3=O)c(-c3ccccc3)c2c1` [Compound 1, N-(3-morpholin-4-ylpropyl)-2-(2-oxo-1,2-dihydropyridin-3-yl)-3-phenyl-1H-indole-5-carboxamide], the melting point – broadly, the temperature of the solid-liquid transition – was 238 to 244 °C. Also, the inhibition at 10 µM in the series with NCI-H1299 is 80 to 100%. For the same compound, the inhibition at 30 µM at IGF-1R was in the range of 80 to 100%. Besides, the inhibition at 10 µM in the series with KATO III is 80 to 100%. Further, the inhibition at 10 µM in the series with DLD-1 is 80 to 100%. Moreover, the inhibition at 10 µM with MDA-MB-231 lay within 80 to 100%.

The compound `CCN(CC)CCCNC(=O)c1ccc2[nH]c(-c3ccc[nH]c3=O)c(-c3ccccc3)c2c1` [Compound 2, N-[3-(diethylamino)propyl]-2-(2-oxo-1,2-dihydropyridin-3-yl)-3-phenyl-1H-indole-5-carboxamide] gave a melting point of 190 to 198 °C. Further, the inhibition at 10 µM in the series on NCI-H1299 lay within 50 to 79%. For the same compound, on IGF-1R, the inhibition at 30 µM is 80 to 100%. In the series on KATO III, the inhibition at 10 µM was 80 to 100%. Besides, the inhibition at 10 µM in the series with DLD-1 fell in the range of 50 to 79%. Further, the inhibition at 10 µM in the series on MDA-MB-231 was in the range of 50 to 79%.

For the compound `O=C(NC1CCNCC1)c1ccc2[nH]c(-c3ccc[nH]c3=O)c(-c3ccccc3)c2c1` [Compound 3, 2-(2-oxo-1,2-dihydropyridin-3-yl)-3-phenyl-N-piperidin-4-yl-1H-indole-5-carboxamide], the melting point lay within 233 to 236 °C. For the same compound, on IGF-1R, the inhibition at 30 µM is 50 to 79%.

`O=C(NCC1CCNCC1)c1ccc2[nH]c(-c3ccc[nH]c3=O)c(-c3ccccc3)c2c1` [Compound 4, 2-(2-oxo-1,2-dihydropyridin-3-yl)-3-phenyl-N-(piperidin-4-ylmethyl)-1H-indole-5-carboxamide] returned a melting point of 189 to 191 °C. Further, the inhibition at 30 µM at IGF-1R lay in the range of 80 to 100%.

In turn, `O=C(NCCCn1ccnc1)c1ccc2[nH]c(-c3ccc[nH]c3=O)c(-c3ccccc3)c2c1` [Compound 6, N-[3-(1H-imidazol-1-yl)propyl]-2-(2-oxo-1,2-dihydropyridin-3-yl)-3-phenyl-1H-indole-5-carboxamide] had a melting point of 153 to 157 °C. For the same compound, in the series with NCI-H1299, the inhibition at 10 µM lay within 80 to 100%. In addition, in the series with KATO III, the inhibition at 10 µM was 80 to 100%. Besides, the inhibition at 10 µM in the series with DLD-1 lay within 50 to 79%. Also, the inhibition at 10 µM in the series with MDA-MB-231 fell in the range of 50 to 79%.

In turn, `O=C(NCCCN1CCOCC1)c1cc2c3c(c1)c(-c1ccccc1)c(-c1ccc[nH]c1=O)n3CCC2` [Compound 7, N-(3-morpholin-4-ylpropyl)-2-(2-oxo-1,2-dihydropyridin-3-yl)-1-phenyl-5,6-dihydro-4H-pyrrolo[3,2,1-ij]quinoline-8-carboxamide] had a melting point of 151 to 158 °C. Further, the inhibition at 10 µM with KATO III is less than 50%. Moreover, in the series with DLD-1, the inhibition at 10 µM was less than 50%. Also, the inhibition at 10 µM in the series with MDA-MB-231 was less than 50%.

For `O=C(c1ccc2[nH]c(-c3ccc[nH]c3=O)c(-c3ccccc3)c2c1)N1CCc2ccccc2C1` [Compound 28, 3-[5-(3,4-dihydroisoquinolin-2(1H)-ylcarbonyl)-3-phenyl-1H-indol-2-yl]pyridin-2(1H)-one], the melting point was in the range of 171 to 177 °C. The inhibition at 10 µM with NCI-H1299 was 80 to 100%. In addition, the inhibition at 30 µM at IGF-1R is 80 to 100%. For the same compound, the inhibition at 10 µM in the series on KATO III was 80 to 100%. The inhibition at 10 µM in the series on DLD-1 was 80 to 100%.

For the compound `O=C(c1ccc2[nH]c(-c3ccc[nH]c3=O)c(-c3ccc(-c4ccccc4)cc3)c2c1)N1CCc2ccccc2C1` [Compound 47, 3-[3-biphenyl-4-yl-5-(3,4-dihydroisoquinolin-2(1H)-ylcarbonyl)-1H-indol-2-yl]pyridin-2(1H)-one], the melting point is 101 to 110 °C. The inhibition at 10 µM in the series on NCI-H1299 was less than 50%. In the series with KATO III, the inhibition at 10 µM was in the range of 50 to 79%. In addition, the inhibition at 10 µM in the series with DLD-1 is 50 to 79%. Moreover, the inhibition at 10 µM in the series on MDA-MB-231 was less than 50%.

With `COc1ccc(NC(=O)c2ccc3[nH]c(-c4ccc[nH]c4=O)c(-c4ccc(-c5ccccc5)cc4)c3c2)cc1` [Compound 48, 3-biphenyl-4-yl-N-(4-methoxyphenyl)-2-(2-oxo-1,2-dihydropyridin-3-yl)-1H-indole-5-carboxamide], the melting point was 154 to 162 °C. Moreover, the inhibition at 10 µM in the series with NCI-H1299 lay in the range of 50 to 79%. The inhibition at 30 µM on IGF-1R was less than 50%. For the same compound, the inhibition at 10 µM in the series with KATO III is 50 to 79%. Besides, in the series on DLD-1, the inhibition at 10 µM was 50 to 79%.

Compound `O=C(NCCCN1CCOCC1)c1ccc2[nH]c(-c3ccc[nH]c3=O)cc2c1` [Compound 55, N-(3-morpholin-4-ylpropyl)-2-(2-oxo-1,2-dihydropyridin-3-yl)-1H-indole-5-carboxamide] had a melting point of 130 to 132 °C. Also, the inhibition at 30 µM on IGF-1R is 80 to 100%. In addition, the inhibition at 10 µM in the series with KATO III was less than 50%. For the same compound, the inhibition at 10 µM in the series with MDA-MB-231 was less than 50%.

`CC(C)c1cccc(-c2c(-c3ccc[nH]c3=O)[nH]c3ccc(C(=O)NCCCN4CCOCC4)cc23)c1` [Compound 71, 3-(3-isopropylphenyl)-N-(3-morpholin-4-ylpropyl)-2-(2-oxo-1,2-dihydropyridin-3-yl)-1H-indole-5-carboxamide] returned a melting point of 89 to 92 °C. Also, the inhibition at 10 µM with NCI-H1299 was in the range of 80 to 100%. Further, the inhibition at 10 µM with KATO III fell in the range of 80 to 100%. For the same compound, the inhibition at 10 µM in the series with DLD-1 lay in the range of 80 to 100%. In addition, the inhibition at 10 µM in the series with MDA-MB-231 lay within 80 to 100%.

`O=C(NCCCN1CCOCC1)c1ccc2[nH]c(-c3ccc[nH]c3=O)c(-c3cc(Cl)cc(Cl)c3)c2c1` [Compound 75, 3-(3,5-dichlorophenyl)-N-(3-morpholin-4-ylpropyl)-2-(2-oxo-1,2-dihydropyridin-3-yl)-1H-indole-5-carboxamide] displayed a melting point of 125 to 130 °C. Also, the inhibition at 10 µM in the series with NCI-H1299 fell in the range of 80 to 100%. For the same compound, in the series on KATO III, the inhibition at 10 µM lay within 80 to 100%. In addition, the inhibition at 10 µM in the series on DLD-1 lay in the range of 80 to 100%. In the series on MDA-MB-231, the inhibition at 10 µM lay within 80 to 100%.

Turning to `O=C(NCCCN1CCOCC1)c1ccc2[nH]c(-c3ccc[nH]c3=O)c(-c3ccc(F)cc3F)c2c1` [Compound 77, 3-(2,4-difluorophenyl)-N-(3-morpholin-4-ylpropyl)-2-(2-oxo-1,2-dihydropyridin-3-yl)-1H-indole-5-carboxamide], the inhibition at 10 µM in the series on NCI-H1299, in the series with KATO III, in the series on DLD-1 and with MDA-MB-231 was less than 50% throughout. Further, on IGF-1R, the inhibition at 30 µM was 80 to 100%.

Regarding `COc1ccc(-c2c(-c3ccc[nH]c3=O)[nH]c3ccc(C(=O)NCCCN4CCOCC4)cc23)cc1` [Compound 80, 3-(4-methoxyphenyl)-N-(3-morpholin-4-ylpropyl)-2-(2-oxo-1,2-dihydropyridin-3-yl)-1H-indole-5-carboxamide], the inhibition at 10 µM with NCI-H1299 was 50 to 79%; in the series on KATO III, 80 to 100%; in the series with DLD-1, 50 to 79%; with MDA-MB-231, 50 to 79%. Besides, the inhibition at 30 µM at IGF-1R lay within 80 to 100%.

`O=C(NCCCN1CCOCC1)c1ccc2[nH]c(-c3ccc[nH]c3=O)c(-c3cccc(F)c3)c2c1` [Compound 82, 3-(3-fluorophenyl)-N-(3-morpholin-4-ylpropyl)-2-(2-oxo-1,2-dihydropyridin-3-yl)-1H-indole-5-carboxamide]: the inhibition at 10 µM with NCI-H1299 is 80 to 100%; in the series on KATO III, 80 to 100%; in the series on DLD-1, 50 to 79%; in the series with MDA-MB-231, less than 50%. In addition, the inhibition at 30 µM on IGF-1R fell in the range of 80 to 100%.

Regarding `O=C(NCCCN1CCOCC1)c1ccc2[nH]c(-c3ccc[nH]c3=O)c(-c3ccc4ncccc4c3)c2c1` [Compound 83, N-(3-morpholin-4-ylpropyl)-2-(2-oxo-1,2-dihydropyridin-3-yl)-3-quinolin-6-yl-1H-indole-5-carboxamide], the inhibition at 10 µM in the series on NCI-H1299, in the series on KATO III, in the series with DLD-1 and with MDA-MB-231 was 80 to 100% in each case. Moreover, the inhibition at 30 µM on IGF-1R was in the range of 80 to 100%.

With `O=c1[nH]cccc1-c1[nH]c2ccccc2c1C1CCN(Cc2ccccc2)CC1` [Compound 85, 3-[3-(1-benzylpiperidin-4-yl)-1H-indol-2-yl]pyridin-2(1H)-one], the melting point fell in the range of 135 to 139 °C. In addition, the inhibition at 10 µM in the series on KATO III was less than 50%. For the same compound, in the series on DLD-1, the inhibition at 10 µM was less than 50%. Besides, the inhibition at 10 µM with MDA-MB-231 was less than 50%.

`O=c1[nH]cccc1-c1[nH]c2ccccc2c1C1CCN(S(=O)(=O)c2ccccc2)CC1` [Compound 86, 3-{3-[1-(phenylsulfonyl)piperidin-4-yl]-1H-indol-2-yl}pyridin-2(1H)-one] gave a melting point of 215 to 217 °C. Also, the inhibition at 10 µM in the series on NCI-H1299 is less than 50%. Moreover, the inhibition at 10 µM in the series with KATO III was less than 50%. In addition, in the series on DLD-1, the inhibition at 10 µM was less than 50%. Further, the inhibition at 10 µM in the series on MDA-MB-231 was less than 50%.

Compound `O=C(c1ccccc1)N1CCC(c2c(-c3ccc[nH]c3=O)[nH]c3ccccc23)CC1` [Compound 87, 3-[3-(1-benzoylpiperidin-4-yl)-1H-indol-2-yl]pyridin-2(1H)-one] displayed a melting point of 294 to 296 °C. In addition, in the series on NCI-H1299, the inhibition at 10 µM is less than 50%. Besides, the inhibition at 10 µM in the series on KATO III is less than 50%. Further, in the series on DLD-1, the inhibition at 10 µM was less than 50%. Also, the inhibition at 10 µM in the series with MDA-MB-231 was 80 to 100%.
